Data published in ChEMBL document CHEMBL1201862, “PubChem BioAssay data set” (2004).
Calls of active or inactive are those of the source.

Tests used:
Exodeoxyribonuclease V = Exodeoxyribonuclease V (Escherichia coli (strain K12), UniProt P04993+P07648+P08394); assay: E. coli RecBCD inhibitors, dose response, counter-screen for AddAB inhibitor project, absorbance, V66 E. coli, mutant T4 phage (AID 492957); format: functional, cell-based, Escherichia coli str. K-12 substr. MG1655
[1] = cytotoxicity in HEK-293T cells, dose response, cytotoxicity control for TCR NF-kB inhibitor project, luminescence, T-cell screen hits (AID 489026); format: functional, cell-based;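 further: cells exposed to compound about 14 hours before the viability readout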
[2] = Counterscreen for AddAB inhibitors: absorbance-based bacterial cell-based high throughput dose response assay for inhibitors of bacterial viability. [Related pubchem assays (depositor defined):AID435030, AID449728, AID449731, AID488942, AID488955, AID488956]; format: functional
INS1 = assay: beta cell apoptosis inhibitors, cytokine rescue, dose response, luminescence, retest (AID 449756); format: functional, cell-based; conditions: Rattus norvegicus;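 further: cell death triggered by IL-1 beta plus TNF-alpha plus IFN-gamma mixture; protective hits raise ATP signal compared with cytokine alone wells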
Protein Wnt-3a = Protein Wnt-3a (Mus musculus, UniProt P27467); assay: Wnt3a-driven reporter signaling inhibition, dose response, selectivity assay for Gli-SUFU antagonist project, Wnt-LIGHT cells, luminescence (AID 651570); format: functional; conditions: read-out: IC50_Mean;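 further: Wnt-LIGHT reporter cells stimulated with conditioned medium from Wnt3a-producing cells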
[3] = inhibitors of firefly luciferase expression or activity, dose response, H4 neuroglioma cells, luminescence (AID 1990); format: functional, cell-based
[4] = Luminescence Cell-Based Dose Response HTS to Identify Inhibitors of 5'UTR Stem-Loop Driven Prion Protein mRNA Translation in H4 Neuroglioblastoma Cells. [Related pubchem assays: 1827 (Project Summary), 1813 (Primary HTS)]; format: functional
[5] = inhibitors of SNCA 5'UTR-driven reporter translation, confirmation, H4 neuroglioma cells, luminescence (AID 1988); format: functional, cell-based
Vero = assay: West Nile virus antiviral activity, cell-based, CPE readout (AID 1621); format: functional; conditions: Chlorocebus sabaeus
[6] = Shn3 3'UTR reporter inhibitors, dose response, cell-based, Clone20 osteoblasts, firefly luciferase, cherry-picked (AID 624132); format: functional;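 further: firefly luciferase luminescence from reporter carrying the Shn3 3'UTR in osteoblasts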
[7] = HepG2 cell cytotoxicity, dose response, cytotoxicity control for Shn3 inhibitor project, CellTiter-Glo, cherry-picked (AID 624134); format: functional, cell-based
[8] = control 3'UTR Renilla luciferase suppression, dose response, counter-screen for Shn3 inhibitor project, cell-based, Clone20-Shn3RL, cherry-picked (AID 624133); format: functional
[9] = target: Photoreceptor-specific nuclear receptor (Homo sapiens, UniProt Q9Y5X4); format: functional, cell-based;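 further: CHO-S cells with Gal4-NCOR and VP16-NR2E3 two-hybrid luciferase reporter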
Photoreceptor-specific nuclear receptor, sequence (Q9Y5X4 whole entry, the tested form may be a part): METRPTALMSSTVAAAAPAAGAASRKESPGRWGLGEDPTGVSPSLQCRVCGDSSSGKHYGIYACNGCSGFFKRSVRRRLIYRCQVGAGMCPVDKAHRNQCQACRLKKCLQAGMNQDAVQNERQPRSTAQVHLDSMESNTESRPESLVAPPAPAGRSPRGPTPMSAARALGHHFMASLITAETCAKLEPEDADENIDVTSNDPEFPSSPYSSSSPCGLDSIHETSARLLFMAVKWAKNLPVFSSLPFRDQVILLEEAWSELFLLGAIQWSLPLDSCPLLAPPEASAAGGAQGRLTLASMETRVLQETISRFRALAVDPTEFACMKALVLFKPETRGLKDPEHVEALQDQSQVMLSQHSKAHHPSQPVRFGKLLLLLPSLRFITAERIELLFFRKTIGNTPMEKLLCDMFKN

[10] = Luminescence Cell-Based Dose Confirmation HTS to Identify Activators of 5'UTR Stem-Loop Driven Alpha-Synuclein mRNA Translation in H4 Neuroglioblastoma Cells. [Related pubchem assays: 1829 (Project Summary), 1814 (Primary HTS)]; format: functional
[11] = Luminescence Cell-Based Dose Response HTS to Identify Activators of Luciferase Translation or Activity in H4 […] Cells. [Related pubchem assays: 1829 (Project Summary), 1814 (Primary HTS)]; format: functional
H4 = assay: Luminescence Cell-Based Dose Response HTS to Identify Activators of 5'UTR Stem-Loop Driven Prion Protein mRNA Translation in H4 Neuroglioblastoma Cells. [Related pubchem assays: 1829 (Project Summary), 1814 (Primary HTS)]; format: functional; conditions: Homo sapiens
[12] = target: Multidrug resistance protein CDR2 (Candida albicans (strain SC5314 / ATCC MYA-2876) (Yeast), UniProt P78595); assay: CaCDR2 efflux pump inhibitors in yeast, dose response, S. cerevisiae AD1-8u, singleplex, Cherry Pick2 set (AID 623994); format: functional; conditions: read-out: EC50_MICROM
Multidrug resistance protein CDR2, sequence (P78595 whole entry): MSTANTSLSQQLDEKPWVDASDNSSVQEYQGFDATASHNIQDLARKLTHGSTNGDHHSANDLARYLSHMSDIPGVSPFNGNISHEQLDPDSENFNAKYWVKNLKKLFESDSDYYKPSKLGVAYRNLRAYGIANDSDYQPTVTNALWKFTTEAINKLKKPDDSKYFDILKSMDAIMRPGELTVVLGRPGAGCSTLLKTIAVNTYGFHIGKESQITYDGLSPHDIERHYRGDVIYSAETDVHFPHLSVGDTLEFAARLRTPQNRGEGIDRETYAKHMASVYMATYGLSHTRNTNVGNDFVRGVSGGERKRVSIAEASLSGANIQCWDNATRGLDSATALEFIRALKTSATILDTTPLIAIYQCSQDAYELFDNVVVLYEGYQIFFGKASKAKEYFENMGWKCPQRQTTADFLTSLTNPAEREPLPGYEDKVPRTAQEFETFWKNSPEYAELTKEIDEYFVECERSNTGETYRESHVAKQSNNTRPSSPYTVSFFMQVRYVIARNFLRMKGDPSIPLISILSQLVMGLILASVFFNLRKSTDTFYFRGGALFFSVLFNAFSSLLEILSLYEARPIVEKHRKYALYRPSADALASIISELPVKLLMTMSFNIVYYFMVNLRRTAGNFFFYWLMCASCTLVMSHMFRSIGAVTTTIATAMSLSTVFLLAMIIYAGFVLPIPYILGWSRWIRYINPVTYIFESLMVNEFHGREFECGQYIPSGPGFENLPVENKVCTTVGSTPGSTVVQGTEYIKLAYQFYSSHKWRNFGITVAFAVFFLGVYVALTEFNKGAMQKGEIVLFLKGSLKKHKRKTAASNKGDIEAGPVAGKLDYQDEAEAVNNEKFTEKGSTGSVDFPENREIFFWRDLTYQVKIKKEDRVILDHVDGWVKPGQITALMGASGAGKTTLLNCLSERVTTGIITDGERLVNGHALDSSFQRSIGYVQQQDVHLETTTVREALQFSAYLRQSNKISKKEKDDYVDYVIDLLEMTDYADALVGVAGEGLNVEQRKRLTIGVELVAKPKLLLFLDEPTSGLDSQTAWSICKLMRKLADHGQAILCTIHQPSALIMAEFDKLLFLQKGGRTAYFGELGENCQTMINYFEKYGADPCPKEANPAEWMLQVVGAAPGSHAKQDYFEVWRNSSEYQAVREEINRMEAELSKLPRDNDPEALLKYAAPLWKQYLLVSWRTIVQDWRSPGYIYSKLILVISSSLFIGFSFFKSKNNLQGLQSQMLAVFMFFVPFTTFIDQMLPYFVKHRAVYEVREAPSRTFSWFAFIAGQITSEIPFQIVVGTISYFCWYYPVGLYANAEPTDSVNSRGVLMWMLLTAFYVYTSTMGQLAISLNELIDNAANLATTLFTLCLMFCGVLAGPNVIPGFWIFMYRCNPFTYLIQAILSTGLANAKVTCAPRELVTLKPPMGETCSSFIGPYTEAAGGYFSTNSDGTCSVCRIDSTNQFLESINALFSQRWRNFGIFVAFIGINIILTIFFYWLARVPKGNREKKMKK

[13] = target: T1, Replicative DNA helicase DnaB (Mycobacterium tuberculosis, UniProt P9WMR3); assay: DnaB intein splicing inhibitors, dose response, biochemical, cell-free fluorescence (AID 449749); format: functional
T1 sequence (P9WMR3 whole entry): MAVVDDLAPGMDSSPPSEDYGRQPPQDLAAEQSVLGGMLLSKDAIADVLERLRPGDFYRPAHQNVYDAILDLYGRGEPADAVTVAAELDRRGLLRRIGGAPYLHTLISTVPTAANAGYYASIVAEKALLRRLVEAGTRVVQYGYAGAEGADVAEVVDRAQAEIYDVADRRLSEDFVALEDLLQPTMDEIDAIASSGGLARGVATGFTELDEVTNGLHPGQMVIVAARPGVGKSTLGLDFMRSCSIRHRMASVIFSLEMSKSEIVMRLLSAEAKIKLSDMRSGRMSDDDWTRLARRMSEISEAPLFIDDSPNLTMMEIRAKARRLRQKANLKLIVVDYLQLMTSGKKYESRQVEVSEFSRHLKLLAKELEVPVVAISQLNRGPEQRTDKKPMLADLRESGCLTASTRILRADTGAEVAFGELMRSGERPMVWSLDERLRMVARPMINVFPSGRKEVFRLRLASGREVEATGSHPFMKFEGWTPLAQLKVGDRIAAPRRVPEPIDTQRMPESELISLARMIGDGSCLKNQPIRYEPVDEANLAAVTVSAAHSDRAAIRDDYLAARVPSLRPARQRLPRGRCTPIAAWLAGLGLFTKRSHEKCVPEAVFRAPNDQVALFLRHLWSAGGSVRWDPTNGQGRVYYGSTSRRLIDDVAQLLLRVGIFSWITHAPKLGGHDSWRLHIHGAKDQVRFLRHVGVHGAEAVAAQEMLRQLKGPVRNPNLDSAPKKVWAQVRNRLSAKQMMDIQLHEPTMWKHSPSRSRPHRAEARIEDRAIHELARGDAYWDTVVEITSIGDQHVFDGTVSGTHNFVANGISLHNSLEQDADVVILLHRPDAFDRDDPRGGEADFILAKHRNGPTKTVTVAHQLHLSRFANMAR

Protein RecA = target: T2, Protein RecA (Mycobacterium tuberculosis, UniProt P9WHJ3); assay: Fluorescence Cell-Free Homogeneous Dose Retest to Identify Inhibitors of RecA-Intein Splicing Activity. [Related pubchem assays (depositor defined):AID2097, AID2223, AID489010, AID492950]; format: functional
T2 sequence (P9WHJ3 whole entry): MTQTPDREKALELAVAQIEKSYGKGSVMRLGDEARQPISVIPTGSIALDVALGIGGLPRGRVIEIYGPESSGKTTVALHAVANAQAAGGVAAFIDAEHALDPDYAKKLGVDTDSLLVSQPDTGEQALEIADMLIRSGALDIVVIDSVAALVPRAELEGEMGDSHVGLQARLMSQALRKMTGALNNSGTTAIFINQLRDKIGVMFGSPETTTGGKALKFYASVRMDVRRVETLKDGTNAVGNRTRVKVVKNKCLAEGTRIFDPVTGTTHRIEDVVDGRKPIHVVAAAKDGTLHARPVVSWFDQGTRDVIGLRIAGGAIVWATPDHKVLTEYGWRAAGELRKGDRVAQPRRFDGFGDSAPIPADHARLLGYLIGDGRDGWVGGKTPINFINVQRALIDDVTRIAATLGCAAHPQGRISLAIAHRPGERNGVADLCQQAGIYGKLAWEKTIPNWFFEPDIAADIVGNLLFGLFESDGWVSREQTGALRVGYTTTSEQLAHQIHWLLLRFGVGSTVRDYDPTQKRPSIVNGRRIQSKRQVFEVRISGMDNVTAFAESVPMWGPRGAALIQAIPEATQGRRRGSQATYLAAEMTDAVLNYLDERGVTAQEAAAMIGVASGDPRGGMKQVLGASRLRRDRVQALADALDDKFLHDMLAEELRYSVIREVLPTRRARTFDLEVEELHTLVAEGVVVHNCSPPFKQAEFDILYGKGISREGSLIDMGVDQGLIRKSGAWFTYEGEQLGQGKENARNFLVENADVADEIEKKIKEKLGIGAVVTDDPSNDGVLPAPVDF

[14] = target: Mitochondrial peptide methionine sulfoxide reductase (Bos taurus, UniProt P54149); format: functional;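 further: absorbance read-out, biochemical high-throughput dose-response screen for MsrA inhibitors, confirmatory; recombinant bovine MsrA coupled to E. coli TrxB with NADPH and selenocystamine; potency is for inhibitors of MsrA activity on DMSO substrate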
Mitochondrial peptide methionine sulfoxide reductase, sequence (P54149 whole entry): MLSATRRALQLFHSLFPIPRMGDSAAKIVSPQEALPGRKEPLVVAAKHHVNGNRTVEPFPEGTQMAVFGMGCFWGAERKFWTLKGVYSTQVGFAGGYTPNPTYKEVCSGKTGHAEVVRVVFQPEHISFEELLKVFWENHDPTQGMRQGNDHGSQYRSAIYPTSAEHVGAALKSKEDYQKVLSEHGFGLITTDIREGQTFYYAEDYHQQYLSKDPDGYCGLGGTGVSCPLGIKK

Exodeoxyribonuclease V, sequence (P04993 whole entry): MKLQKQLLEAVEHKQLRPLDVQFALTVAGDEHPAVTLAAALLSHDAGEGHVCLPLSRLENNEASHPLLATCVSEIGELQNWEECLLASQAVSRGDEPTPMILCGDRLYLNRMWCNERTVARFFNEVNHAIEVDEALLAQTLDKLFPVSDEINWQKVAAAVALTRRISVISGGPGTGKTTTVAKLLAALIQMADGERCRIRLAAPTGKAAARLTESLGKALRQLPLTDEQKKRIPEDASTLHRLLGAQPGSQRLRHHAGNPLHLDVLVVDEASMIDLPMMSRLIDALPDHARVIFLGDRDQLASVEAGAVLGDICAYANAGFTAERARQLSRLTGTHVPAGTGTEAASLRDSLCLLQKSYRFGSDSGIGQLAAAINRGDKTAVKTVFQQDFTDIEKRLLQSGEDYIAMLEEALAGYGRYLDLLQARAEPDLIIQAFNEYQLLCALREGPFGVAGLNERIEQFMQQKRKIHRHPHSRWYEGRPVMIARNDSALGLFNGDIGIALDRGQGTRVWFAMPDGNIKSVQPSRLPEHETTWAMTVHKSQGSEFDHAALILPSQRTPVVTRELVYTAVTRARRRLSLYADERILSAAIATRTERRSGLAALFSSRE
Exodeoxyribonuclease V, sequence (P07648 whole entry): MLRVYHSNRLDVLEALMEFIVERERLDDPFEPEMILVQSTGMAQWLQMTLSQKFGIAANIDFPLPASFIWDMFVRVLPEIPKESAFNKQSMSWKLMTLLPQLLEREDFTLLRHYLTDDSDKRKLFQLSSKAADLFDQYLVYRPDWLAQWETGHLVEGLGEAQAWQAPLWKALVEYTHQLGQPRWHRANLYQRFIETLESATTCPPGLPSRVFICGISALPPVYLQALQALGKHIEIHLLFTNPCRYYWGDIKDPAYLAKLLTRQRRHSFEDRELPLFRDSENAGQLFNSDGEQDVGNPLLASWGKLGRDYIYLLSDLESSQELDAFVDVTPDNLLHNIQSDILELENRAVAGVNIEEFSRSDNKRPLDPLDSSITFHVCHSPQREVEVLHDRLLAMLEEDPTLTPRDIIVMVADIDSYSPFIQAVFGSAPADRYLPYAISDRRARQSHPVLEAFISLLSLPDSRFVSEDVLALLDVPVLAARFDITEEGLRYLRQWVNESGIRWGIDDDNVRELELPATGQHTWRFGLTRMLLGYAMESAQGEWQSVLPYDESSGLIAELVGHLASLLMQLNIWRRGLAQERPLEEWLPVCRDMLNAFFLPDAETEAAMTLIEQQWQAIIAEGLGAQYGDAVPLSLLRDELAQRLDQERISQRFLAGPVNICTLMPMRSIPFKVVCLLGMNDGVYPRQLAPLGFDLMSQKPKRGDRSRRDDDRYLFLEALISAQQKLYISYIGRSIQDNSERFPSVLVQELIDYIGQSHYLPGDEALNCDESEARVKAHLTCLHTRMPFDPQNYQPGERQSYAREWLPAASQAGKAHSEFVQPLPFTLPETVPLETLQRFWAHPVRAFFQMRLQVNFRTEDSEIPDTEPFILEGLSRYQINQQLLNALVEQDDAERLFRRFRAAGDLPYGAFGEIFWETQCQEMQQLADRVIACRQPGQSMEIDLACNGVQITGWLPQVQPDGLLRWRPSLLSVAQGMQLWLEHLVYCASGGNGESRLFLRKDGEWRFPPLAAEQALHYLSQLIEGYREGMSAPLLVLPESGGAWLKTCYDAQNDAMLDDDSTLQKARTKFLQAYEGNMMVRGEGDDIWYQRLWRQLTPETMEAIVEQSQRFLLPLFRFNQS
Exodeoxyribonuclease V, sequence (P08394 whole entry): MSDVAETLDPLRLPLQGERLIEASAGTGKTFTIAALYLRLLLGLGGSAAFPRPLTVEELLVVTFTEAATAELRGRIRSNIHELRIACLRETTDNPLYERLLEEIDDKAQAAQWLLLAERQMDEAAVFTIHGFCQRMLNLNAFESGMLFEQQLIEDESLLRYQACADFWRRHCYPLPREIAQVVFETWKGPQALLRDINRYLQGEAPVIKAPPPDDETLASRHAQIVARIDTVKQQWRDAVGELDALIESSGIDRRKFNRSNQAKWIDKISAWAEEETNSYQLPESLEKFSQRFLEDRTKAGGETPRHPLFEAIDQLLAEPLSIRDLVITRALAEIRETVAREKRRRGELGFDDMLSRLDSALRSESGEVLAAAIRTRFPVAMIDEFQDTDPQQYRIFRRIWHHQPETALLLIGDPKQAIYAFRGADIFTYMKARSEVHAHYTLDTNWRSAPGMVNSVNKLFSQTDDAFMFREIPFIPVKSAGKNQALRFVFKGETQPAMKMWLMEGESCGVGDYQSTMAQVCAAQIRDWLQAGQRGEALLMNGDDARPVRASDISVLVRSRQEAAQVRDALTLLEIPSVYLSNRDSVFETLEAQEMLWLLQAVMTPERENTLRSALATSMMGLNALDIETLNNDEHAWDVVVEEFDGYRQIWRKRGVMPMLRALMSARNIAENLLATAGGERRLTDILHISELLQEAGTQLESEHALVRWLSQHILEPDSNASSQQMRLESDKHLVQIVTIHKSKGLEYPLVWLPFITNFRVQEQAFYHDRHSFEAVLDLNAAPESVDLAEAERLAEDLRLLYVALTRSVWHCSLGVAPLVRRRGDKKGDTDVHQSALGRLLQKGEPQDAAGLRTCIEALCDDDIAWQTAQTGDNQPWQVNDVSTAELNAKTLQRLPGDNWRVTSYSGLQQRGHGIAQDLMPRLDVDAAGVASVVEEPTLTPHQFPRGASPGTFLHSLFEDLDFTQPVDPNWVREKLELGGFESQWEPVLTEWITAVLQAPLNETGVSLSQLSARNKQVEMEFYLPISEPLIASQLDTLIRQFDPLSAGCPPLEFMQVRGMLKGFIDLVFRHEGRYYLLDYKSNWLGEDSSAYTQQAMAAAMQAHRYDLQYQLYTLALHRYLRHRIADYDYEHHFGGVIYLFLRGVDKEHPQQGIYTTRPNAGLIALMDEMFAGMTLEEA

CCOC(=O)c1ccc(NC(=O)Cn2cnc3cc(C)c(C)cc32)cc1
IC50 (Exodeoxyribonuclease V): > 119 µM (inactive) | IC50 [1]: > 80 µM (inactive) | IC50 [2]: > 119 µM (inactive) | AC50 (INS1): 4.42 µM (active) | IC50 (Protein Wnt-3a): 0.931 µM (active)

COc1cc2c(OC(C)=O)c3c(c(-c4ccc5c(c4)OCO5)c2cc1OC)C(=O)OC3
EC50 [3]: 8.65 µM (active) | EC50 [4]: 14.4 µM (active) | EC50 [5]: 4.4 µM (active) | IC50 (Vero): 21.1 µM (active) | AC50 [6]: 1.8 µM (active) | AC50 [7]: 1.38 µM (active) | AC50 [8]: 24.5 µM (active) | IC50 [9]: 1.83 µM (active)

O=C(Nc1ccccc1)C1=C[C@H](c2ccccc2)C[C@H](OCCCCO)O1
EC50 [10]: 11.6 µM (active) | EC50 [11]: 9.7 µM (active) | EC50 (H4): 22 µM (active) | EC50 [12]: 27.7 µM (active)

CS/C(=C/[N+](=O)[O-])Nc1cccc2c1C(C)CC2(C)C (stereo not given)
AC50 [13]: 17.5 µM (active) | EC50 (Protein RecA): 5.21 µM (active) | IC50 [14]: 44.8 µM (inactive)
